Tested on: thrombocytes
Assay: ADP-induced aggregation of thrombocytes in vitro (Born method, plasma enriched with thrombocytes)
Format: cell-based, rabbit
Conditions: 3-minute incubation, ADP 10^−5 M
Description: The aggregation of thrombocytes was studied by the Born method based on determination of the changes in the optical density of plasma enriched with thrombocytes after its incubation with an aggregation inductor.
Adenozinediphosphoric acid (ADP) was selected as an aggregation inductor, which in fact is an aggregation generator. Use was made of a sample (registration number 885) of the Sigma Diagnostics Company (USA) in final concentration of 10^−5 M.
The experiments were carried out on male rabbits of the “Chinchilla” breed having a mass of 2.7±0.3 kg. 18-24 hours prior to the experiment they were deprived of feed while preserving free access to water.
To obtain plasma enriched with thrombocytes, blood was taken from a cut of a marginal vein of the rabbit ear, the sample was stabilized with 3.8% of sodium citrate solution in a ratio of 9:1 and centrifuged at 200 g (1000 rev/min) for 10 minutes. The top supernatant layer enriched with thrombocytes was transferred by an automatic dropper into a silicone test tube and kept at 37° C. The plasma enriched with thrombocytes contained, on the average, […]. If this content exceeded the specified 3×10^8 blood platelets in 1 liter, this sample was diluted to the necessary concentration with plasma deprived of thrombocytes, which was obtained by centrifuging blood at 650 g during 10 minutes.
The measurements of the optical density of the samples were made on two-channel aggregometer of the “Chronolog” Company (USA). A flask containing 490 mkl of plasma rich with thrombocytes was placed in a device, into which a magnetic agitator covered with Teflon was lowered. The index of maximum amplitude of aggregation (MA) in percent of a fall of the plasma optical density under effect of the aggregation inductor was recorded. The control index MA of plasma was compared with the MA of plasma incubated for 3 minutes with different concentrations of the compounds: from 10^−3 to 10^−7 in vitro experiments or with plasma obtained 15, 30, 60 and 120 minutes after intravenous administration of different doses of the compounds in vivo experiments.
The process of aggregation of thrombocytes was recorded with the help of a computer; on the monitor screen the there were depicted curves reflecting changes of the optical density of the plasma enriched which was taken as a standard 100% compared to the optical density of the non-thrombocyte plasma taken for 0% content of thrombocytes.
Under in vitro conditions a flask was filled with blood plasma enriched with thrombocytes, to which an aggregation inductor ADP was added at a concentration of 10^−5 M, incubated for 3 minutes, and then the compounds according to the invention were introduced directly into the flask. Their action by aggregation of thrombocytes was studied after 3-minute incubation in a wide range of concentrations from 10^−3 to 10^−7 M to minimum concentration of 10^−7M not inducing no effect of suppressing the aggregation.

SMILES	MA - fall of optical density of plasma, % to the standard (10^−3 M, control 60.8 ± 3.4)	MA - fall of optical density of plasma, % to the standard (10^−4 M, control 60.0 ± 2.1)	MA - fall of optical density of plasma, % to the standard (10^−5 M, control 52.5 ± 2.1)	MA - drop of optical density, % (10^−6 M, control 52.8 ± 1.8)	MA - drop of optical density, % (10^−7 M, control 51.5 ± 2.1)
Nc1ncnc2c(=O)n([C@@H]3O[C@H](CO)[C@@H](O)[C@H]3O)[nH]c(=O)c12.[Na] [Compound 31, sodium salt of 4-amino-7-(β-D-ribofuranosile)pyrimido[4,5-d]-6H-pyridazine-5,8-dione]	44.9 ± 2.3 %	46.7 ± 2.2 %	39.9 ± 2.1 %	47.5 ± 1.7 %	49.5 ± 1.2%
O=c1[nH]n([C@@H]2O[C@H](CO)[C@@H](O)[C@H]2O)c(=O)c2ccccc12.[Na] [Compound 9, sodium salt of 2-(β-D-ribofuranosile)benzo[d]-3H-pyridazine-1,4-dione]	47.3 ± 2.0 %	53.1 ± 1.8 %	41.4 ± 3.4 %	49.4 ± 3.2%	51.2 ± 1.7%
Nc1cnc2c(=O)[nH][nH]c(=O)c2n1.[Na] [Compound 28, sodium salt of 2-amino-pyrazine[2,3-d]-6H-pyridazine-5,8-dione]	49.7 ± 2.2 %	48.9 ± 2.4 %	44.2 ± 2.7 %	–	50.4 ± 3.0%
O=c1[nH]n([C@@H]2O[C@H](CO)[C@@H](O)[C@H]2O)c(=O)c2nccc(O)c12.[Na].[Na] [Compound 4, disodium salt of 4-hydroxy-7-(βD-ribofuranosile)pyrido[2,3-d]-6H-pyridazine-5,8-dione]	49.2 ± 2.3 %	50.2 ± 2.0 %	46.2 ± 3.1 %	50.6 ± 3.1%	49.9 ± 3.4%

Reference: US8592421B2, “Cyclic bioisosters of purine system derivatives and a pharmaceutical composition based thereon” (priority 2003, dated 2013)
